From ChEMBL document CHEMBL5506029 (J Med Chem, 2024) come the findings set out here.

A value given as a limit tells only on which side of the number the result lay.

The term clearance denotes a measure of how efficiently the substance is removed, as volume per time. For orientation: AUC(0-inf) means the area under the concentration-time curve extrapolated to infinity. As a reminder, the half-life is the time in which the quantity being followed falls by half. One may read the Tmax as the time from dosing to the highest level.

The nature of data set [1]: Unbound brain-to-plasma concentration ratio in rat at iv dosed for 4 to 24 hrs by LC-MS/MS analysis. Format: ADME, organism-based. The note with it: time 4-24 hrs; for Kp uu: read-out: K(p,uu,brain).
A short description of data set [2]: Clearance in rat plasma at iv dosed for 4 to 24 hrs by LC-MS/MS analysis. The class given is ADME, organism-based. The note with it: time 4-24 hrs.
The nature of data set [3]: Unbound clearance in rat plasma at iv dosed for 4 to 24 hrs by LC-MS/MS analysis. The class given is ADME, organism-based. The note with it: in vivo, time 4-24 hrs.
Data set [4] in a line: Intrinsic clearance in human liver microsomes. Format: ADME, Microsome. The conditions noted are these: read-out: CLH. A general note: Microsomes from liver hold many membrane-bound enzymes, among them those of drug oxidation.
Data set [5] can be described thus: Intrinsic clearance in human Hepatocyte. Format: ADME, cell-based. The conditions noted are these: hepatocytes, read-out: CLH.
The nature of data set [6]: AUCinfinity in rat at iv administration. Format: ADME, organism-based. The note with it: in vivo.
Data set [7] is described as follows: AUCinfinity in mouse at iv administration. The note with it: in vivo. The class given is ADME, organism-based.
The nature of data set [8]: AUCinfinity in Cynomolgus monkey at iv administration. Format: ADME, organism-based, Macaca fascicularis. The conditions noted are these: in vivo.
Data set [9] is described as follows: AUCinfinity in iv dosed dog. Format: ADME, organism-based, Canis lupus familiaris. The conditions noted are these: in vivo.
Data set [10] is described as follows: Clearance in rat at iv administration. The class given is ADME, organism-based. The conditions noted are these: in vivo.
Data set [11] is described as follows: Clearance in Cynomolgus monkey at iv administration. Format: ADME, organism-based, Macaca fascicularis. The conditions noted are these: in vivo.
A short description of data set [12]: Clearance in iv dosed dog. Format: ADME, organism-based, Canis lupus familiaris. The note with it: in vivo.
Data set [13] is described as follows: Unbound clearance in rat at iv administration. Format: ADME, organism-based. The conditions noted are these: in vivo.
The nature of data set [14]: Unbound clearance in mouse at iv administration. Format: ADME, organism-based. The conditions noted are these: in vivo.
Data set [15] can be described thus: Unbound clearance in Cynomolgus monkey at iv administration. The class given is ADME, organism-based, Macaca fascicularis. The conditions noted are these: in vivo.
Data set [16] can be described thus: Unbound clearance in iv dosed dog. Format: ADME, organism-based, Canis lupus familiaris. The conditions noted are these: in vivo.
Data set [17] in a line: Volume of distribution at steady state in rat at iv administration. The class given is ADME, organism-based. The conditions noted are these: in vivo, read-out: Vdss.
Data set [18] is described as follows: Volume of distribution at steady state in mouse at iv administration. Format: ADME, organism-based. The conditions noted are these: in vivo, read-out: Vdss.
A short description of data set [19]: Volume of distribution at steady state in Cynomolgus monkey at iv administration. Format: ADME, organism-based, Macaca fascicularis. The note with it: in vivo, read-out: Vdss.
The nature of data set [20]: Volume of distribution at steady state in iv dosed dog. Format: ADME, organism-based, Canis lupus familiaris. The note with it: in vivo, read-out: Vdss.
Data set [21] can be described thus: Half life in rat at iv administration. The class given is ADME, organism-based. The note with it: in vivo.
The nature of data set [22]: Half life in mouse at iv administration. The conditions noted are these: in vivo. Format: ADME, organism-based.
The nature of data set [23]: Half life in Cynomolgus monkey at iv administration. The conditions noted are these: in vivo. The class given is ADME, organism-based, Macaca fascicularis.
Data set [24] in a line: Half life in iv dosed dog. Format: ADME, organism-based, Canis lupus familiaris. The note with it: in vivo.
Data set [25] is described as follows: Tmax in rat at po administration. The class given is ADME, organism-based. The note with it: in vivo.
The nature of data set [26]: Tmax in mouse at po administration. Format: ADME, organism-based. The note with it: in vivo.
Data set [27] in a line: Tmax in Cynomolgus monkey at po administration. Format: ADME, organism-based, Macaca fascicularis. The note with it: in vivo.
Data set [28] in a line: Tmax in po dosed dog. The class given is ADME, organism-based, Canis lupus familiaris. The conditions noted are these: in vivo.
A short description of data set [29]: Oral bioavailability in rat. Format: ADME, organism-based. The note with it: in vivo.
Data set [30] in a line: Oral bioavailability in mouse. The note with it: in vivo. The class given is ADME, organism-based.
A short description of data set [31]: Oral bioavailability in Cynomolgus monkey. Format: ADME, organism-based, Macaca fascicularis. The conditions noted are these: in vivo.
A short description of data set [32]: Oral bioavailability in dog. Format: ADME, organism-based, Canis lupus familiaris. The note with it: in vivo.

For `COCC12CC(c3cn4cc(C(=O)Nc5cccn(C6CC6)c5=O)c(OC(C)C)nc4n3)(CO1)C2`, in data set [1], the Kp uu is 0.5. The compound also returned a clearance in [2] of 20.8 mL/min/kg. This compound also returned a CL free in data set [3] of 170 mL/min/kg.

As to `CC(C)Oc1nc2nc(C34CCC(C)(C3)OC4)cn2cc1C(=O)Nc1cccn([C@H]2C[C@H]2F)c1=O` (single isomer, unassigned), in data set [1], the Kp uu turned out to be 0.2. Moreover, the clearance in [2] is 12.7 mL/min/kg. Also, in data set [3], the CL free came out at 306 mL/min/kg.

Turning to `CC(C)Oc1nc2nc(C34COC(C3)C4)cn2cc1C(=O)Nc1cccn(C2CC2)c1=O`, in [1], the Kp uu was found to be 0.4. Moreover, the clearance in [2] was 8 mL/min/kg. In data set [3], the CL free was found to be 88 mL/min/kg.

Consider `COC[C@@]12CC[C@@](c3cn4cc(C(=O)Nc5cccn([C@H]6C[C@H]6F)c5=O)c(OC(C)C)nc4n3)(CO1)C2`, for which the Kp uu in data set [1] was 0.1. The compound further had a clearance in [2] of 33 mL/min/kg. The same compound showed a CL free in [3] of 312 mL/min/kg.

`CC(C)Oc1nc2nc(C34COC(CF)(C3)C4)cn2cc1C(=O)Nc1cccn(C2CC2)c1=O`: the Kp uu in [1] came to 0.2. The clearance in data set [2] was 9.6 mL/min/kg. In addition, the CL free in data set [3] amounted to 51 mL/min/kg.

`Cc1cnc2c(NC(=O)c3cn4cc(C56COC(C)(C5)C6)nc4nc3OC(C)C)cnn2c1`: in [1] (iv), the “K(p,uu,brain)” value stood at 0.3.

In the case of `CC(C)Oc1nc2nc([C@@]34CC[C@@](C)(C3)OC4)cn2cc1C(=O)Nc1cccn(C2CC2)c1=O` (single isomer, unassigned), in [1], the Kp uu was determined as 0.3. Moreover, the clearance in [2] was 36 mL/min/kg. In data set [3], this compound had a CL free of 310 mL/min/kg.

For `COC[C@@]12CC[C@@](c3cn4cc(C(=O)Nc5cccn(C6CC6)c5=O)c(OC(C)C)nc4n3)(CO1)C2`, the Kp uu in data set [1] came to 0.2. The compound further displayed a clearance in data set [2] of 17 mL/min/kg. Further, in [3], the CL free was found to be 281 mL/min/kg.

Regarding `CC(C)Oc1nc2nc(C34COC(C)(C3)C4)cn2cc1C(=O)Nc1cccn([C@H]2C[C@H]2C)c1=O`, the Kp uu in data set [1] came to 0.4.

For the compound `CC(C)Oc1nc2nc(C34COC(C)(C3)C4)cn2cc1C(=O)Nc1cccn([C@H]2C[C@H]2F)c1=O` (single isomer, unassigned), the Kp uu in data set [1] was 0.3.

`CC(C)Oc1nc2nc(C34COC(C)(C3)C4)cn2cc1C(=O)Nc1cccn(C2CC2)c1=O`: the Kp uu in data set [1] turned out to be 0.7. In addition, the CLint scaled in data set [4] was under 5 mL/min/kg; in data set [5], 5.1 mL/min/kg. Also, the AUC(0-inf) in data set [6] was determined as 1040 ng·h/mL; in [7], 1020 ng·h/mL; in data set [8], 1130 ng·h/mL; in [9], 1400 ng·h/mL. For the same compound, the clearance worked out at 14.2 mL/min/kg in data set [10], 15.1 mL/min/kg in [11] and 12.7 mL/min/kg in data set [12]. The CL free in data set [13] was 171 mL/min/kg; in data set [14], 240 mL/min/kg; in data set [15], 98 mL/min/kg; in data set [16] it was 76 mL/min/kg. Also, the Vd in data set [17] stood at 2.9 L/kg; in data set [18] it was 1.5 L/kg; in [19], 0.9 L/kg; in [20] it was 1.4 L/kg. Also, the half-life was 2.5 h in data set [21], 1.6 h in data set [22], 0.8 h in [23] and 1.4 h in [24]. The Tmax turned out to be 0.25 h in data set [25], 0.25 h in data set [26], 1.2 h in [27] and 0.6 h in [28]. Also, the bioavailability was determined as 128% in [29], 92% in data set [30], 61% in data set [31] and 89% in data set [32].
